Data set [1] in a line: Thermal study: glass transition temperature (Tg) of amorphous monofumarate and sorbate. It counts as physicochemical. Here is the method:
Each salt was analysed by DSC and TGA to determine the Tg of the amorphous form. Amorphous forms were generated by thermocycling the salt past the melt temperature, cooling the sample, and once cooled the samples were reheated. Open pan and sealed pan DSC were utilised, open pan DSC were heated past the melt event, cooled, and left to stand under ambient conditions overnight.
Sealed pans were immediately cycled with no time left to stand.
TGA (open pan) samples were analysed by thermocycle, with no time for the sample to stand under ambient conditions.
The amorphous forms were generated in these studies and characterised with their Tg being measured.
A hot stage microscope heating block was used to generate the amorphous phase in-situ, to allow analysis by XRPD. A silicon XRPD sample plate was loaded with the appropriate salt. The plate was heated past the melt event, removed from the hot stage microscope block and cooled to ambient in air and analysed by XRPD to ensure that the amorphous form was generated. The amorphous material was then analysed by ^1H NMR and LC-MS to ensure there was no change in chemical composition.
Two DSC pans were charge with the appropriate salt (Tabernanthalog·Sorbate, A1270−076-A1 and Tabernanthalog·Monofumarate, Tabernanthalog·Monofumarate), the first DSC pan was not sealed (open pan DSC), the second was sealed (hermetic sealed pan DSC). The open pan DSC was cycled from 20° C. to just after the melt event for each, cooled to −20° C. and left to stand under ambient conditions over night. The open pan DSC was then heated to just before the thermal degradation event (Tabernanthalog·Sorbate ca. 160° C., Tabernanthalog·Monofumarate ca. 210° C.) The hermetic sealed DSC was heated from 20° C. to just after the melt event, cooled to −20° C. then headed to just before the same degradation event.
Two TGA crucibles were charged with the appropriate salt (Tabemanthalog·Sorbate, A1270-076-A1, Tabernanthalog·Monofumarate, Tabernanthalog·Monofumarate), both were thermocycled from 20° C. to past the melt event and then cooled to −20° C., each pan was then immediately heated to just before the degradation event to measure the Tg event.

Data set [2] is described as follows: Amorphous study (freeze drying, evaporation, spray drying, bead milling) of monofumarate and sorbate. Format: physicochemical. The settings on record: 50 mg. An excerpt: The purpose of this study was to generate amorphous material to be characterized and used in water activity studies. To achieve this, the two salts were exposed to a variety of techniques in attempts to generate the amorphous forms, including freeze drying, evaporation, vacuum desiccation and cryodesiccation spray drying. These techniques were not successful for the two salts Tabernanthalog·Monofumarate and Tabernanthalog·Sorbate.
Bead milling was attempted to generate the amorphous form of Tabernanthalog·Sorbate (Tabernanthalog·Sorbate, Form A). The salt underwent neat milling and separately with the addition of tetradecafluorohexane (TDFH). The following experiments were performed: Experiment 6-Sample A1 (30 Hz, 2 h), Experiment 6-Sample A2 (30 Hz, 5.5 h) and Experiment 6-Sample A3 (30 Hz 1 h, TDFH), the products from each experiment was analysed by XRPD to determine the extent of crystallinity (FIG. 812). None of the experiments provided amorphous material.
Each salt was charged to a 7 ml vial (50 mg, 1.0 wt). To the vial containing Tabernanthalog·Monofumarate (Tabernanthalog·Monofumarate), was charged water (10.0 vol), to fully dissolve the sample. Tabernanthalog·Sorbate (A1270-076-A1) was taken-up in ethanol/water (15% v/v, 10 vol), a further charge of water (1.0 ml), was added to ensure that the sample dissolved.
Vials containing the salt solutions were placed on the freeze drier apparatus overnight, and the cryo-desiccated products were recovered the following morning and analysed by XRPD each product remained crystalline.
Tabernanthalog·Monofumarate (A1272−082-A2, 51.1 mg, 1.0 wt) was charged to a 7 ml scintillation vial followed by THE (2 ml, […]), the suspension was heated to 50° C., until full dissolution was observed. The vial was stoppered by foil and a pin hole was pierced in the top. The vial was located under a steady N2 stream.
Tabernanthalog·Sorbate (A1270−076-A1, 99.4 mg, 1.0 wt) was charged to a 7 ml scintillation vial, followed by hexafluoroisopropanol (HFIPA, 5.0 vol, 0.5 ml), after which, the sample fully dissolved. The cap was replaced by foil and pierced on the top. Solvent was allowed to evaporate, to afford a dry, brown solid that was analysed by XRPD yielding crystalline pattern #7. Sample were dried under N2 stream for 5 h and reanalysed by XRPD, remaining as pattern #7
Tabernanthalog·Sorbate (A1270−076-A1, 50.0 mg, 1.0 wt) was charged to a 7 ml scintillation vial followed by hexafluoroisopropanol (HFIPA, 0.5 ml, 10 vol), to yield a clear solution. The solution was concentrated to dryness, by rotary evaporation, yielding an oil, that was allowed to stand undisturbed overnight.
Tabernanthalog·Sorbate (A1270−076-A1, 50.0 mg, 1.0 wt) was charged to a 7 ml scintillation vial, followed by methanol (300 μl, 6.0 vol). The solution was clarified by filtration into a 7 ml scintillation vial, containing diethyl ether (1.0 ml, 20.0 vol).
Tabernanthalog·Sorbate (A1270−076-A1, 102 mg, 1 wt) was charged to a 7.0 ml scintillation vial followed by methanol (1.9 ml, 19.0 vol). The solution was loaded into the spray drier apparatus.
The procedure yielded a brown powder (30 mg, 30% th.).
Tabernanthalog·Sorbate (A1270-076-A1, Form A) was charged to a 1.5 ml steel milling-vessel with a single 5 mm ball bearing. The sample was milled for 5.5 h at 30 Hz and yielded an off-white powder, that was analysed by XRPD, no change in crystallinity.

Data set [3] can be described thus: SIF buffer solubility panel (FaSSIF, FeSSIF, FaSSGF). It counts as physicochemical. As to conditions: 37° C., up to 24 h (timepoints t=0, 1 h, 3 h, 6 h, 24 h).
The nature of data set [4]: DVS 0 to 90 to 0% RH (mass equilibrated). Format: physicochemical.
A short description of data set [5]: Solubility determinations in SIF buffers FaSSIF, FeSSIF, FaSSGF (Example 8, Experiment 5). The essentials: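 Suspensions in FaSSIF, FeSSIF or FaSSGF held at 37° C for 24 h, sampled at set time points and centrifuged. Pellets checked by XRPD, wet and dried, for form change.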
Data set [6] is described as follows: Equilibrium humidity evaluation 75% RH/40° C., 10 days (Example 8, Experiment 6). Format: physicochemical. As to the method: The experimental procedure that accompany this experiment is provided in Section G.ii.
All forms were maintained under constant equilibrium humidity (75% RH). XRPD, DSC, TGA, PLM and ^1H NMR analyses were performed on the absorbents at t=5 d and t=10 d, to confirm their physical fates and to determine the extent of residual solvent exchange or sequestration.
100 mg portions of Tabernanthalog salts ([…]) were placed in the relevant open vials. The powders were finely divided and distributed evenly over the base of the vial, such that equal material coverage across the panel was observed. These samples were then maintained 40° C. under 75% RH. The samples were sub-sampled at intervals of 5 and 10 days and analyzed by ^1H NMR, HPLC, XRPD, DSC, TGA and PLM, for evidence of phase change or chemical degradation.

Data set [7] in a line: Dynamic vapour sorption (DVS) of selected salts (Example 8). Format: physicochemical. The settings on record: 0 to 90 to 0% RH, 25° C., dm/dt 0.002%/min. As to the method:
DVS: The moisture sorption properties of the feed API were analyzed by DVS Intrinsic instrument (Surface Measurement System). Approximately 20-50 mg of API was weighed on an aluminum pan and loaded into the instrument equilibrated at 25° C. The sample was allowed to equilibrate under dry atmosphere (0% relative humidity) for 60 minutes before increasing the humidity from 0% to 30% at 5% step increment and from 30% to 90% at 10% step increment. A desorption cycle was also applied from 90% to 30% (10% step) and from 30% to 0% (5% decrement). A rate of change in mass per time unit (dm/dt) of 0.002%/min was set as the equilibrium parameter. Kinetic and isotherm graphs were calculated.

Where [8] appears, read: Amorphisation activity: Crash cool.
[9] abbreviates: Amorphisation activity: Freeze dry.
Where [10] appears, read: each timepoint up to 24 h, 37° C.

Take `COc1ccc2c3c([nH]c2c1)CCN(C)CC3.O=C(O)/C=C/C(=O)O` [Tabernanthalog•Monofumarate]: the Outcome result was “Amorphous” in data set [1] (Hot plate heat up, sorbate 20 to 170 ° C., monofumarate 20 to 210 ° C.); “Almost Amorphous” in data set [1] (Hot stage plate heat up, sorbate 20 to 170 ° C., monofumarate 20 to 210 ° C.); “Amorphous” in data set [1] (Open Pan DSC, sorbate 20 to 165 to −20, O/N 20 to 230 ° C., monofumarate 20 to 210 to −20, O/N 20 to 210 ° C.); “Amorphous” in data set [1] (Sealed DSC, sorbate 20 to 165 to −20 to 230 ° C., monofumarate 20 to 210 to −20 to 210 ° C.); “Amorphous” in data set [1] (TGA, sorbate 20 to 165 to −20 to 230 ° C., monofumarate 20 to 210 to −20 to 210 ° C.); “Crystalline” in data set [2] (setting [8]). Also, the Outcome result in data set [2] (setting [9]) and in data set [2] (Amorphisation activity: THF/N2) was “Crystalline” each time. In addition, the “Glass temperature (Tgs)” value in data set [1] (amorphous form generated in situ, sealed DSC thermocycle (Sample B1)) was determined as 63 °C. The “Form by XRPD” value in data set [2] (setting [8]) is recorded as “Pattern #3”; in data set [2] (setting [9]) it was “Pattern #1”; in data set [2] (Amorphisation activity: THF/N2), “Pattern #11”.

On to `COc1ccc2c3c([nH]c2c1)CCN(C)CC3` [Pattern #6a (Form A)], for which the “solubility in FaSSGF” value in data set [3] is “soluble”. In addition, in data set [3], the “solubility in FaSSIF” value is on record as “soluble”. In addition, in data set [3], the “solubility in FeSSIF” value is listed as “soluble”. The “DVS 0 to 90 to 0% RH (dm/dt <0.002%)” value in data set [4] (desorption, 0.0% RH) was determined as 0.0381%; in data set [4] (desorption, 5.0% RH), 0.1179%; in data set [4] (desorption, 10.0% RH) it was 0.1551%; in data set [4] (desorption, 15.0% RH) it was 0.1857%; in data set [4] (desorption, 20.0% RH) it was 0.2126%; in data set [4] (desorption, 25.0% RH), 0.2387%. Besides, the “DVS 0 to 90 to 0% RH (dm/dt <0.002%)” value in data set [4] (desorption, 30.0% RH) was found to be 0.2656%; in data set [4] (desorption, 40.0% RH) it was 0.3210%; in data set [4] (desorption, 50.0% RH), 0.3797%; in data set [4] (desorption, 60.0% RH) it was 0.4515%; in data set [4] (desorption, 70.0% RH), 0.5442%; in data set [4] (desorption, 80.0% RH), 0.6827%. Moreover, the “DVS 0 to 90 to 0% RH (dm/dt <0.002%)” value in data set [4] (desorption, 90.0% RH) is 0.9766%; in data set [4] (sorption, 0.0% RH) it was 0.0004%; in data set [4] (sorption, 5.0% RH) it was 0.0627%; in data set [4] (sorption, 10.0% RH), 0.0957%; in data set [4] (sorption, 15.0% RH), 0.1397%; in data set [4] (sorption, 20.0% RH) it was 0.1778%. Moreover, the “DVS 0 to 90 to 0% RH (dm/dt <0.002%)” value in data set [4] (sorption, 25.0% RH) is given as 0.2093%; in data set [4] (sorption, 30.0% RH), 0.2401%; in data set [4] (sorption, 40.0% RH), 0.3145%; in data set [4] (sorption, 50.0% RH), 0.4051%; in data set [4] (sorption, 70.0% RH) it was 0.5451%; in data set [4] (sorption, 80.0% RH), 0.6660%. Further, the “DVS 0 to 90 to 0% RH (dm/dt <0.002%)” value in data set [4] (sorption, 90.0% RH) was found to be 0.9766%.

With `COc1ccc2c3c([nH]c2c1)CCN(C)CC3.O=C(O)c1ccccc1` [tabernanthalog benzoate salt], in data set [3], the “solubility in FaSSGF” value is recorded as “all dissolved except the tabernanthalog benzoate salt”, the “solubility in FaSSIF” value is on record as “all dissolved except the tabernanthalog benzoate salt” and the “solubility in FeSSIF” value is “all dissolved except the tabernanthalog benzoate salt”. The “behaviour at 30 mg/ml in SIF buffers” value in data set [5] (FaSSIF, FeSSIF, FaSSGF, 37° C., 24 h) is reported as “precipitated in all three SIF buffers”. Moreover, in data set [5] (setting [10]), the “stability of the suspended phase in FaSSIF (XRPD of pellet)” value was “stable and did not disproportionate in FaSSIF”; the “stability of the suspended phase in FeSSIF (XRPD of pellet)” value is “stable and did not disproportionate in FeSSIF”. In data set [5] (over the time points up to 24 h), the “decrease in chemical purity of wet pellets in FaSSIF” value was “ca. 1.22 % area”. Also, the “fate of the suspended phase in FaSSGF (XRPD, 1H NMR)” value in data set [5] (up to 24 h, 37° C.) is reported as “consistent with benzoic acid”. The “change in chemical purity (trended HPLC)” value in data set [6] (75% RH/40° C., after 10 days) is “did not decrease significantly”. In addition, the “water uptake / hydrate formation (TGA, DSC)” value in data set [6] (75% RH/40° C., t=5 d and t=10 d) is reported as “no significant water uptake”. Also, the “powder diffraction pattern versus input (form stability)” value in data set [6] (75% RH/40° C., t=5 days and t=10 days) was “consistent with the input”. Moreover, the “Tabernanthalog RRT = 1.00 (trended HPLC data, chemical purity)” value in data set [6] (Benzoate salt, input before humidity exposure) is 98.56. For the same compound, the DVS sorption/desorption isotherm entry in data set [7] was “slightly hygroscopic”.

For the origin of these results see patent US20230257385A1, “SALT AND SOLID FORMS OF TABERNANTHALOG” (priority 2021, published 2023).
